In patent publication US9023831B2, “Methods and compositions of inhibiting complement and cellular activation with Dextran Sulfate” (Novelmed Therapeutics, Inc., priority 2007, dated 2015):

What was measured:
[1] = system: platelets (CD62P staining); test: Platelet activation (CD62P flow cytometry) after tubing loop; type: cell-based, human; conditions: Aspirin 100 μg/ml added to NM3014 prior to tubing loop rotation
Protocol: It was expected that platelet activation would also be inhibited. […] The inhibition of platelet activation was measured using flow cytometry following CD62P staining of activated platelets.
It was expected that platelet activation will also be inhibited. […] The inhibition of platelet activation was measured using flow cytometry following CD62P staining of activated platelets.
While platelets bear C3a receptors, it is not clear how platelets were being activated. In an effort to downregulate platelet activation, we performed an experiment in which Dextran Sulfate was utilized in combination with aspirin. […] These surprising results present Dextran Sulfate as a lead complement inhibitory drug that down regulates both complement and cellular activation in heparinized whole human blood. Shown in FIGS. 10d and 10e are results from this study.
For CD62P labeling of platelets, 100 μl of diluted blood collected from the circuits were immediately incubated with 20 μl of PE-anti-CD62P antibody (Becton Dickinson) for 20 minutes at room temperature in a polypropylene tube, Then the mixture was treated with FACS Lysing Solution as described above. The microcentrifuge tubes were centrifuged at 12000. g for 5 minutes. The platelets were washed in PBS/BSA 01%, fixed in 1% paraformaldehyde and then analyzed as described above. For double labeling to concomitantly identify the platelet population, 5 μl of FITC-anti-CD61 antibody were added for incubation together with PE-anti-CD62P antibody.
For flow cytometry measurement, the PMN (containing mainly neutrophils) and platelet populations were identified by live gating based on forward- versus side-scatter parameters and specific staining with FITC-anti-CD15 antibody and FITC-anti-CD61 antibody, respectively. The background staining was gated using isotype-matched labeled antibodies. The intensity of expression of CD11b and CD62P was represented by mean fluorescence intensity (MFI).

arthritic Lewis rats = test: Joint inflammation and bone destruction in Rat-AIA (CFA-induced arthritis); type: in vivo
Protocol: Lewis male rats were used to examine the effect of Dextran Sulfate combination with aggrastat (molecular weight 40,000 and 5,000) for the treatment of arthritis. Arthritis was induced in adult male Lewis rats (200-225 gm) by an intradermal injection of complete Freund's adjuvant (CFA) at the base of the tail on the dorsal side. The CFA (100 mg dried and heat killed Mycobacterium butyricum (Difco, Detroit, Mich.) emulsified in 10 ml sterile mineral oil) was prepared by grinding the bacteria powder with a mortar and pestle until the bacterial cell wall turned from a light beige to an eggshell white powder. The mineral oil was then slowly mixed into the bacterial cell wall using the mortar and pestle. All animals in each experiment were challenged with the same preparation of adjuvant and nearly 100% of the animals developed arthritis. Dextran Sulfate was obtained from Sigma Aldrich Corp and Aggrastat was purchased from the pharmacy. Dextran Sulfate was dissolved in aggrastat. The drug treatment started on day 10 post-immunization, the time of disease onset, and continued until sacrifice. The dose of Dextran Sulfate was 20 & 10 mg/Kg/per day per 150-200 g rat. The inflammatory response was assesed by the measurement of paw volume. Paw volume appears to be very consistent and gave slow increasing arthritis over time. Paw volumes were measured every day until sacrifice using Plethysmometer (IITC). After the sacrifice/euthanasia, limbs were removed and processed for;
a) histological evaluations: Only three animals were used per group. Sections were stained with Eosin and hematoxylin to identify various regions within the inflamed limb. Untreated controls have intact cartilage layer and the bone (Score 0) and clear synovium without pannus. Arthritic controls had no defined cartilage bone, and have pannus layer and significant inflammation (Score 5). Enbrel was used as positive control. […] We gave a score of 2.
b) Paw Swelling: Each paw was measured for water displacement using plethysmometer. Paw volume was measured every day.
Continuous treatment of Dextran Sulfate therapies from disease onset affected paw swelling in arthritic rats. All adjuvant-challenged rats developed AA between days 10-12. […] While inflammation was decreased in these treatment groups, we observed a greater effect for these drugs in prevention of bone and cartilage destruction.

Compound: CC(=O)Oc1ccccc1C(=O)O [Aspirin, reference compound]
- inhibition of NM3014 induced platelet activation [1]: inhibition of platelet activation much below the control levels
- inhibition of NM3014 induced platelet activation ([1]; listed as aspirin): downregulated activation of platelets much below control levels

Compound: Dextran Sulfate [Dextran Sulfate 5,000]
- paw swelling (paw volume, plethysmometer) (arthritic Lewis rats; with Aggrastat, compared to untreated controls): decreased the inflammation

Compound: Enbrel [reference compound]
- histological score (arthritic Lewis rats; Score 0 untreated controls, Score 5 arthritic controls): 2
